Several values for one entry are separate records, joined by “and”; a condition that tells them apart may be missing. Identical values can stand only once. Inconclusive results and toxic doses are left out. The calls were made as follows: active = survival T/C of 150% or more; inactive = T/C below 125% in these data.
System: P388 leukemia ip, CD2F1 mice, survival T/C
Assay: NCI In Vivo Anticancer Drug Screen. Data for tumor model P388 Leukemia (intraperitoneal) in CD2F1 (CDF1) mice
Conditions: endpoint: median survival time, higher = longer survival
Summary of the method: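 Mice carrying the transplanted tumor received test compound or vehicle. Survival was recorded in each group, and the value is the treated-group measurement divided by that of the vehicle-treated control group.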

[1] = dose: 100.0 mg/kg/injection, schedule: Q04DX003 (ip), vehicle: saline
[2] = dose: 200.0 mg/kg/injection, schedule: Q04DX003 (ip), vehicle: saline
[3] = dose: 400.0 mg/kg/injection, schedule: Q04DX003 (ip), vehicle: saline
[4] = dose: 50.0 mg/kg/injection, schedule: Q01DX005 (ip), vehicle: saline
[5] = dose: 100.0 mg/kg/injection, schedule: Q01DX005 (ip), vehicle: saline
[6] = dose: 50.0 mg/kg/injection, schedule: Q01DX009 (ip), vehicle: saline
[7] = dose: 100.0 mg/kg/injection, schedule: Q01DX009 (ip), vehicle: saline
[8] = dose: 200.0 mg/kg/injection, schedule: Q01DX009 (ip), vehicle: saline

Measured: T/C

C[C@@H]1C[C@@H]([C@H](O)CC2CC(=O)NC(=O)C2)C(=O)[C@@H](C)C1
inactive: dose: 3.89 mg/kg/injection, schedule: Q01DX009 (ip), vehicle: Klucel (hydroxypropylcellulose) (HPC) 99 % of control and 108 % of control | dose: 6.48 mg/kg/injection, schedule: Q01DX009 (ip), vehicle: Klucel (hydroxypropylcellulose) (HPC) 102 % of control and 104 % of control | dose: 10.8 mg/kg/injection, schedule: Q01DX009 (ip), vehicle: Klucel (hydroxypropylcellulose) (HPC) 104 % of control and 117 % of control | dose: 12.5 mg/kg/injection, schedule: Q01DX009 (ip), vehicle: water 108 % of control and 115 % of control | dose: 18.0 mg/kg/injection, schedule: Q01DX009 (ip), vehicle: Klucel (hydroxypropylcellulose) (HPC) 106 % of control and 94 % of control | dose: 20.0 mg/kg/injection, schedule: Q01DX009 (ip), vehicle: water 92 % of control | dose: 23.3 mg/kg/injection, schedule: Q04DX003 (ip), vehicle: Klucel (hydroxypropylcellulose) (HPC) 102 % of control and 104 % of control | dose: 25.0 mg/kg/injection, schedule: Q01DX009 (ip), vehicle: water 117 % of control | dose: 30.0 mg/kg/injection, schedule: Q01DX009 (ip), vehicle: Klucel (hydroxypropylcellulose) (HPC) 113 % of control and 117 % of control | dose: 30.0 mg/kg/injection, schedule: Q01DX009 (ip), vehicle: water 95 % of control | dose: 38.9 mg/kg/injection, schedule: Q04DX003 (ip), vehicle: Klucel (hydroxypropylcellulose) (HPC) 111 % of control and 97 % of control | dose: 40.0 mg/kg/injection, schedule: Q01DX009 (ip), vehicle: water 100 % of control | dose: 50.0 mg/kg/injection, schedule: Q01DX009 (ip), vehicle: water 99 % of control | dose: 64.8 mg/kg/injection, schedule: Q04DX003 (ip), vehicle: Klucel (hydroxypropylcellulose) (HPC) 104 % of control and 95 % of control | dose: 80.0 mg/kg/injection, schedule: Q01DX009 (ip), vehicle: water 109 % of control | dose: 100.0 mg/kg/injection, schedule: Q01DX001 (ip), vehicle: saline 110 % of control | dose: 108.0 mg/kg/injection, schedule: Q04DX003 (ip), vehicle: Klucel (hydroxypropylcellulose) (HPC) 109 % of control | dose: 120.0 mg/kg/injection, schedule: Q01DX009 (ip), vehicle: water 92 % of control | dose: 125.0 mg/kg/injection, schedule: Q01DX001 (ip), vehicle: saline 113 % of control | dose: 150.0 mg/kg/injection, schedule: Q01DX001 (ip), vehicle: saline 112 % of control | dose: 175.0 mg/kg/injection, schedule: Q01DX001 (ip), vehicle: saline 112 % of control | dose: 180.0 mg/kg/injection, schedule: Q04DX003 (ip), vehicle: Klucel (hydroxypropylcellulose) (HPC) 97 % of control | dose: 200.0 mg/kg/injection, schedule: Q01DX001 (ip), vehicle: saline 112 % of control

Cc1cc(N=[N+]=[N-])c2cc(F)ccc2n1
inactive: dose: 30.0 mg/kg/injection, schedule: Q01DX005 (ip), vehicle: saline with Tween-80 92 % of control | dose: 60.0 mg/kg/injection, schedule: Q01DX005 (ip), vehicle: saline with Tween-80 90 % of control and 92 % of control

[O-][n+]1c2ccccc2cc2c1c1ccccc1n2O
inactive: dose: 12.5 mg/kg/injection, schedule: Q01DX005 (ip), vehicle: Klucel (hydroxypropylcellulose) (HPC) 113 % of control | dose: 25.0 mg/kg/injection, schedule: Q01DX005 (ip), vehicle: Klucel (hydroxypropylcellulose) (HPC) 107 % of control | dose: 50.0 mg/kg/injection, schedule: Q01DX005 (ip), vehicle: Klucel (hydroxypropylcellulose) (HPC) 106 % of control and 93 % of control

COC(=O)Nc1nc2cc(OC)c(OC)cc2c(=O)[nH]1
inactive: dose: 25.0 mg/kg/injection, schedule: Q01DX005 (ip), vehicle: saline with Tween-80 111 % of control | dose: 50.0 mg/kg/injection, schedule: Q01DX005 (ip), vehicle: saline with Tween-80 107 % of control

Cc1ccc2c(c1)-c1nc(N)ncc1C(O)O2 (stereo unspecified)
inactive: [1] 110 % of control | [2] 96 % of control | [3] 100 % of control

Cc1cc[n+](-c2c3c(nc4ccccc24)-c2ccccc2C(C)(C)C3)cc1
inactive: dose: 12.5 mg/kg/injection, schedule: Q01DX005 (ip), vehicle: saline 100 % of control | dose: 25.0 mg/kg/injection, schedule: Q01DX005 (ip), vehicle: saline 91 % of control | [4] 94 % of control | [5] 106 % of control

COc1ccc2c(c1OC)C1=C(C2=O)c2cc3c(cc2CCN1)OCO3
inactive: dose: 50.0 mg/kg/injection, schedule: Q01DX005 (ip), vehicle: saline + Tween-80 + alcohol 102 % of control | dose: 100.0 mg/kg/injection, schedule: Q01DX005 (ip), vehicle: saline + Tween-80 + alcohol 100 % of control | dose: 200.0 mg/kg/injection, schedule: Q01DX005 (ip), vehicle: saline + Tween-80 + alcohol 102 % of control

CCCCOC(=O)c1ccc(NC(=O)Nc2cc(C)ccc2C)cc1
inactive: dose: 50.0 mg/kg/injection, schedule: Q01DX009 (ip), vehicle: saline with Tween-80 96 % of control | dose: 100.0 mg/kg/injection, schedule: Q01DX009 (ip), vehicle: saline with Tween-80 94 % of control | dose: 200.0 mg/kg/injection, schedule: Q01DX009 (ip), vehicle: saline with Tween-80 91 % of control

Cc1ncc([N+](=O)[O-])n1CCSC#N
inactive: dose: 6.25 mg/kg/injection, schedule: Q04DX003 (ip), vehicle: saline with Tween-80 105 % of control | dose: 12.5 mg/kg/injection, schedule: Q04DX003 (ip), vehicle: saline with Tween-80 96 % of control

COc1cc2nc3occc3c(OC)c2cc1OCC(O)C(C)(C)O (stereo unspecified)
inactive: dose: 12.5 mg/kg/injection, schedule: Q01DX005 (ip), vehicle: distilled water + Tween-80 91 % of control | dose: 25.0 mg/kg/injection, schedule: Q01DX005 (ip), vehicle: distilled water + Tween-80 98 % of control

CC(=NCc1ccccc1)NOCc1ccccc1
inactive: [4] 114 % of control | [5] 108 % of control | dose: 200.0 mg/kg/injection, schedule: Q01DX005 (ip), vehicle: saline 101 % of control

CC(=O)Nc1ccc(Nc2ccc(NCCO)c3c2C(=O)c2c(O)ccc(O)c2C3=O)cc1
inactive: dose: 25.0 mg/kg/injection, schedule: Q04DX002 (ip), vehicle: saline with Tween-80 96 % of control | dose: 50.0 mg/kg/injection, schedule: Q04DX002 (ip), vehicle: saline with Tween-80 96 % of control | dose: 100.0 mg/kg/injection, schedule: Q04DX002 (ip), vehicle: saline with Tween-80 100 % of control | dose: 200.0 mg/kg/injection, schedule: Q04DX002 (ip), vehicle: saline with Tween-80 100 % of control

CC(=O)OCC1OC(Oc2ncccn2)C(OC(C)=O)C1OC(C)=O (stereo unspecified)
inactive: [6] 98 % of control | dose: 50.0 mg/kg/injection, schedule: Q01DX009 (ip), vehicle: suspension in saline 100 % of control | [7] 103 % of control | dose: 100.0 mg/kg/injection, schedule: Q01DX009 (ip), vehicle: suspension in saline 99 % of control | [8] 100 % of control | dose: 200.0 mg/kg/injection, schedule: Q01DX009 (ip), vehicle: suspension in saline 99 % of control | dose: 400.0 mg/kg/injection, schedule: Q01DX009 (ip), vehicle: saline 99 % of control | dose: 400.0 mg/kg/injection, schedule: Q01DX009 (ip), vehicle: suspension in saline 96 % of control

COc1cc2c(cc1O)-c1c(cnn1-c1ccc([N+](=O)[O-])cc1[N+](=O)[O-])CCC2
inactive: [1] 100 % of control | [2] 99 % of control | [3] 96 % of control

CN1CN=C(Sc2ccc(Cl)cc2[N+](=O)[O-])NC1
inactive: [6] 89 % of control | [7] 100 % of control | [8] 104 % of control

CC(C)C12CCC(=O)C=C1CCCC2O (stereo unspecified)
inactive: dose: 100.0 mg/kg/injection, schedule: Q01DX009 (ip), vehicle: saline sonified 90 % of control | dose: 200.0 mg/kg/injection, schedule: Q01DX009 (ip), vehicle: saline sonified 100 % of control | dose: 400.0 mg/kg/injection, schedule: Q01DX009 (ip), vehicle: saline sonified 109 % of control

Source: PubChem BioAssay AID330 (DTP/NCI, 2004)
